Laboratory results reported in patent US11013696B2, “Lipids and lipid compositions for the delivery of active agents” (Novartis AG, priority 2013, dated 2021).
Structures can show the parent of a compound that is named as a salt.

assay: siRNA encapsulation in lipid nanoparticles (SYBR Gold); type: physicochemical; conditions: Table 2; FVII siRNA in LNP with the cationic lipid
Experimental: The lipid nanoparticles (LNPs) were formed by mixing equal volumes of lipids dissolved in alcohol with siRNA dissolved in a citrate buffer by an impinging jet process. The lipid solution contains a cationic lipid compound of the invention, a helper lipid (cholesterol), an optional neutral lipid (DSPC) and a PEG (PEG) lipid at a concentration of 8-16 mg/mL with a target of 12 mg/mL in an alcohol. The siRNA to total lipid ratio is approximately 0.05 (wt/wt). Where a LNP formulation contains four lipid components, the molar ratios of the lipids ranges from 20 to 70 mole percent for the cationic lipid with a target of 40-60, the mole percent of helper lipid ranges from 20 to 70 with a target of 30 to 50, the mole percent of neutral lipid ranges from 0-30, the mole percent of PEG lipid has a range from 1 to 6 with a target of 2 to 5. The concentration of siRNA solution ranges from 0.7 to 1.0 mg/mL with a target of 0.8 to 0.9 mg/mL in a sodium citrate: sodium chloride buffer pH 4-6, with a target of 4.5-5.5. The LNPs are formed by mixing equal volumes of lipid solution in ethanol with siRNA dissolved in a citrate buffer by an impinging jet process through a mixing device with ID ranging from 0.25 to 2.0 mm at a flow rate from 10 to 640 mL/min. The mixed LNP solution is held at room temperature for 0-24 hrs prior to a dilution step. The solution is then concentrated and diafiltered with suitable buffer by ultrafiltration or dialysis process using membranes with a MW cutoff from 30 to 500 KD. The final product is sterile filtered and stored at 4° C.
The lipid nanoparticles (LNPs) were formed by mixing equal volumes of lipids dissolved in alcohol with siRNA dissolved in a citrate buffer by an impinging jet process. The lipid solution contains a cationic lipid compound of the invention, a helper lipid (cholesterol), an optional neutral lipid (DSPC) and a stealth lipid (5010, S024, S027, or S031) at a concentration of 8-16 mg/mL with a target of 12 mg/mL in an alcohol. The siRNA to total lipid ratio is approximately 0.05 (wt/wt). Where a LNP formulation contains four lipid components, the molar ratios of the lipids ranges from 20 to 70 mole percent for the cationic lipid with a target of 40-60, the mole percent of helper lipid ranges from 20 to 70 with a target of 30 to 50, the mole percent of neutral lipid ranges from 0-30, the mole percent of PEG lipid has a range from 1 to 6 with a target of 2 to 5. The concentration of siRNA solution ranges from 0.7 to 1.0 mg/mL with a target of 0.8 to 0.9 mg/mL in a sodium citrate: sodium chloride buffer pH 4-6, with a target of 4.5-5.5. The LNPs are formed by mixing equal volumes of lipid solution in ethanol with siRNA dissolved in a citrate buffer by an impinging jet process through a mixing device with ID ranging from 0.25 to 2.0 mm at a flow rate from 10 to 640 mL/min. The mixed LNP solution is held at room temperature for 0-24 hrs prior to a dilution step. The solution is then concentrated and diafiltered with suitable buffer by ultrafiltration process using membranes with a MW cutoff from 30 to 500 KD. The final product is sterile filtered and stored at 4° C.
SYBR Gold flourescence reagent is used for the determination of siRNA encapsulation in the DLP's. DLP's with and without triton x-100 are used to determine the free siRNA and total siRNA amounts. DLP's samples with and without triton X-100 were excited at 485 nm and flourescence emission is measured at 530 nm. Encapsulation efficiency is calculated based on the following formula: Encapsulation efficiency:[([…])/(total siRNA concentration)]×100% Encapsulation Data

In order of falling “% encapsulation siRNA FVII” value:
1. CCCCCCCCCCCCC(CCC(=O)OC(COC(=O)CCCCCCCCC)COC(=O)CCCCCCCCC)OC(=O)OCCCN(CC)CC (stereo not drawn) [Example 90, 2-((4-(((3-(diethylamino)propoxy)carbonyl)oxy)hexadecanoyl)oxy)propane-1,3-diyl bis(decanoate)]  91.4%
2. CCCCC/C=C\C/C=C\CCCCCCCCC(COCCOC(=O)CCCCCCC/C=C\C/C=C\CCCCC)OC(=O)CCN(C)C (stereo not drawn) [Example 59, (9Z,12Z)-2-(((11Z,14Z)-2-((3-(dimethylamino)propanoyl)oxy)icosa-11,14-dien-1-yl)oxy)ethyl octadeca-9,12-dienoate]  90.2%
3. CCCCCCCCCCCCC(COC(=O)CCC(OCC(CC)CCCC)OCC(CC)CCCC)OC(=O)OCCCN(CC)CC (stereo not drawn) [Example 48, 2-(((3-(diethylamino)propoxy)carbonyl)oxy)tetradecyl 4,4-bis((2-ethylhexyl)oxy)butanoate]  89.3%
4. CCCCC/C=C\C/C=C\CCCCCCCCC(CCOC(=O)CCCC(CCCCCCC)CCCCCCC)OC(=O)CCCN(C)C (stereo not drawn) [Example 51, (12Z,15Z)-3-((4-(dimethylamino)butanoyl)oxy)henicosa-12,15-dien-1-yl 5-heptyldodecanoate]  89.2%
5. CCCCC/C=C\C/C=C\CCCCCCCCOC(=O)OCCC(CCCCCCCC/C=C\C/C=C\CCCCC)OC(=O)CCN(C)C (stereo not drawn) [Example 54, (12Z,15Z)-1-((((9Z,12Z)-octadeca-9,12-dien-1-yloxy)carbonyl)oxy)henicosa-12,15-dien-3-yl 3-(dimethylamino)propanoate]  88.6%
6. CCCCC/C=C\C/C=C\CCCCCCCCC(CCOC(=O)CCCCCCC/C=C\C/C=C\CCCCC)OC(=O)CCN(C)C (stereo not drawn) [Example 49, (9Z,12Z)-(12Z,15Z)-3-((3-(dimethylamino)propanoyl)oxy)henicosa-12,15-dien-1-yl octadeca-9,12-dienoate]  88.4%
7. CCCCC/C=C\C/C=C\CCCCCCCCC(CCC(=O)OC(COC(=O)CCCCCCC)COC(=O)CCCCCCC)OC(=O)OCCCN(CC)CC (stereo not drawn) [Example 95, 2-(((13Z,16Z)-4-(((3-(diethylamino)propoxy)carbonyl)oxy)docosa-13,16-dienoyl)oxy)propane-1,3-diyl dioctanoate]  86.9%
8. CCCCCCCCC(CCCCCCCC)CC(CCCCOC(=O)CCCCCCC)OC(=O)OCCCN(C)C (stereo not drawn) [Example 71, 5-(((3-(dimethylamino)propoxy)carbonyl)oxy)-7-octylpentadecyl octanoate]  86.7%
9. CCCCCCCCCCCCCC(=O)OCC(COC(=O)CCCCCCCCCCCCC)OC(=O)CCC(CCCCCCCCCCCC)OC(=O)OCCCN(C)C (stereo not drawn) [Example 85, 2-((4-(((3-(dimethylamino)propoxy)carbonyl)oxy)hexadecanoyl)oxy)propane-1,3-diyl ditetradecanoate]  85.7%
10. CCCCC/C=C\C/C=C\CCCCCCCCC(CCOC(=O)CCCCCCCC(CCCCC)CCCCC)OC(=O)CCCN(C)C (stereo not drawn) [Example 53, (12Z,15Z)-3-((4-(dimethylamino)butanoyl)oxy)henicosa-12,15-dien-1-yl 9-pentyltetradecanoate]  85.6%
11. CCCCCCCC(=O)OCCCCCCCCCCC(CCOC(=O)CCCC(CCCCCCC)CCCCCCC)OC(=O)OCCCN(C)C (stereo not drawn) [Example 63, 3-(((3-(dimethylamino)propoxy)carbonyl)oxy)-13-(octanoyloxy)tridecyl 5-heptyldodecanoate]  85.6%
12. CCCCCCCCC(CCCCCCCC)CC(=O)OCCC(CCCCCCCCCCOC(=O)CCCCCCC)OC(=O)OCCCN(C)C (stereo not drawn) [Example 61, 3-(((3-(dimethylamino)propoxy)carbonyl)oxy)-13-(octanoyloxy)tridecyl 3-octylundecanoate]  85.5%
13. CCCCC/C=C\C/C=C\CCCCCCCCC(CCOC(=O)CC(CCCCCCCC)CCCCCCCC)OC(=O)CCCN(C)C (stereo not drawn) [Example 50, (12Z,15Z)-3-((4-(dimethylamino)butanoyl)oxy)henicosa-12,15-dien-1-yl 3-octylundecanoate, formate salt]  85.3%
14. CCCCC/C=C\C/C=C\CCCCCCCCC(CCOC(=O)CCCCCC(CCCCCC)CCCCCC)OC(=O)CCCN(C)C (stereo not drawn) [Example 52, (12Z,15Z)-3-((4-(dimethylamino)butanoyl)oxy)henicosa-12,15-dien-1-yl 7-hexyltridecanoate]  84.6%
15. CCCCCCCC(=O)OCCCCCCCCCCC(CCOC(=O)CCCCCCCC(CCCCC)CCCCC)OC(=O)OCCCN(C)C (stereo not drawn) [Example 66, 3-(((3-(dimethylamino)propoxy)carbonyl)oxy)-13-(octanoyloxy)tridecyl 9-pentyltetradecanoate]  83.4%
16. CCCCC/C=C\C/C=C\CCCCCCCC(=O)OCCC(CCCCCCCCCCOC(=O)CCCCCCC)OC(=O)OCCCN(C)C (stereo not drawn) [Example 60, (9Z,12Z)-3-(((3-(dimethylamino)propoxy)carbonyl)oxy)-13-(octanoyloxy)tridecyl octadeca-9,12-dienoate]  82.4%
17. CCCCCCCCCCCCC(CCC(=O)OC(COC(=O)CCCCCCCCCCC)COC(=O)CCCCCCCCCCC)OC(=O)OCCCN(C)C (stereo not drawn) [Example 87, 2-((4-(((3-(dimethylamino)propoxy)carbonyl)oxy)hexadecanoyl)oxy)propane-1,3-diyl didodecanoate]  77.5%
18. CCCCCCCC(CCCCCCC)CCCC(=O)OCCC(CCCCCCCCCCO)OC(=O)OCCCN(C)C (stereo not drawn) [Example 62, 3-(((3-(dimethylamino)propoxy)carbonyl)oxy)-13-hydroxytridecyl 5-heptyldodecanoate]  75.2%
19. CCCCC/C=C\C/C=C\CCCCCCCC(=O)OCCCCC(CC(CCCCCCCC)CCCCCCCC)OC(=O)OCCCN(C)C (stereo not drawn) [Example 72, (9Z,12Z)-5-(((3-(dimethylamino)propoxy)carbonyl)oxy)-7-octylpentadecyl octadeca-9,12-dienoate]  62.5%
20. CCCCC/C=C\C/C=C\CCCCCCCC(=O)OCC(COC(=O)CCCCCCC/C=C\C/C=C\CCCCC)OC(=O)CCC(CCCCCCCCCCCC)OC(=O)OCCCN(CC)CC (stereo not drawn) [Example 81, (9Z,9′Z,12Z,12′Z)-2-((4-(((3-(diethylamino)propoxy)carbonyl)oxy)hexadecanoyl)oxy)propane-1,3-diyl bis(octadeca-9,12-dienoate)]  48.8%
21. CCCCCC(CCCCC)CCCCCCCC(=O)OCCC(CCCCCCCCCCO)OC(=O)OCCCN(C)C (stereo not drawn) [Example 65, 3-(((3-(dimethylamino)propoxy)carbonyl)oxy)-13-hydroxytridecyl 9-pentyltetradecanoate]  39.5%
